Key:
HCT116 MTAP null cells = experiment: HCT116 MTAP null cell line proliferation / cell viability (CellTiter-Glo, 6 days); format: cell-based; settings: 144 h; HCT116 MTAP null cells, 6 days treatment, CellTiter-Glo cell viability; read-out: HCT-116 MTAP null IC50
Summary of the method: (§1)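 Viability read by CellTiter-Glo luminescence after 6 days of compound treatment of HCT116 WT and MTAP-null cells (RPMI 1640, 10% FBS). Dose series were 1:3 steps from 1 or 10 μM (8–9 points), or 1:2 steps from 10 or 50 μM (22 points). IC50 from 4-parameter logistic or fixed-slope sigmoidal fit.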

HCT116 WT cells = experiment: HCT116 WT (parent) cell line proliferation / cell viability (CellTiter-Glo, 6 days); format: cell-based; settings: Homo sapiens, HCT-116, 144 h, 6 days treatment
Summary of the method: as §1

Row | Structure (SMILES) | IC50 (HCT116 MTAP null cells) | IC50 (HCT116 WT cells)
1 | CCN(C(=O)c1cc2c(cn1)nc(N)c1cnn(C)c12)C1COc2cc(C(F)(F)F)ccc21 (stereo in doubt) [Example 238, 4-amino-N-ethyl-1-methyl-N-((3S)-6-(trifluoromethyl)-2,3-dihydro-1-benzofuran-3-yl)-1H-pyrazolo[4,3-c][1,7]naph-thyridine-8-carboxamide] | 215 nM | 13000 nM
2 | Cn1ncc2c(N)nc3cc(F)c(C(=O)N(C4CC4)[C@@H]4COc5cc(C(F)(F)F)ccc54)cc3c21 [Example 200, (S)-4-amino-N-cyclopropyl-7-fluoro-1-methyl-N-(6-(trifluoromethyl)-2,3-dihydrobenzofuran-3-yl)-1H-pyrazolo[4,3-c]quinoline-8-carboxamide] | 8 nM | 112 nM
3 | CN(C(=O)c1ccc2nc(N)c3c(c2c1)COC3)[C@@H]1COc2cc(-c3cnn(C)c3)ccc21 [Example 202, 4-amino-N-methyl-N-((3S)-6-(1-methyl-1H-pyrazol-4-yl)-2,3-dihydro-1-benzofuran-3-yl)-1,3-dihydrofuro[3,4-c]-quinoline-8-carboxamide] | 83 nM | 11400 nM
4 | C[C@H]1OCc2c1c(N)nc1ccc(C(=O)N(C)[C@@H]3COc4cc(-c5cnn(C)c5)ccc43)cc21 [Example 204, (3R)-4-amino-N,3-dimethyl-N-((3S)-6-(1-methyl-1H-pyrazol-4-yl)-2,3-dihydro-1-benzofuran-3-yl)-1,3-dihydrofuro[3,4-c]-quinoline-8-carboxamide] | 31 nM | 4390 nM
5 | CN(C(=O)c1cc2c3c(c(N)nc2cn1)COC3)[C@@H]1COc2cc(OC(F)(F)F)ccc21 [Example 206, 4-amino-N-methyl-N-((3S)-6-(trifluoromethoxy)-2,3-dihydro-1-benzofuran-3-yl)-1,3-dihydrofuro[3,4-c][1,7]-naphthyridine-8-carboxamide] | 100 nM | 9790 nM
6 | CN(C(=O)c1cc2c3c(c(N)nc2cn1)COC3)[C@H]1COc2cc(OC(F)(F)F)ccc21 [Example 207, 4-amino-N-methyl-N-((3R)-6-(trifluoromethoxy)-2,3-dihydro-1-benzofuran-3-yl)-1,3-dihydrofuro[3,4-c][1,7]-naphthyridine-8-carboxamide] | 6060 nM | 23200 nM
7 | CN(C(=O)c1cc2c3c(c(N)nc2cn1)COC3)[C@@H]1COc2cc(Cl)c(Cl)cc21 [Example 209, 4-amino-N-((3S)-5,6-dichloro-2,3-dihydro-1-benzofuran-3-yl)-N-methyl-1,3-dihydrofuro[3,4-c][1,7]naphthyridine-8-carbox-amide] | 61 nM | 3000 nM
8 | CN(C(=O)c1cc2c3c(c(N)nc2cn1)COC3)[C@H]1COc2cc(Cl)c(Cl)cc21 [Example 210, 4-amino-N-((3R)-5,6-dichloro-2,3-dihydro-1-benzofuran-3-yl)-N-methyl-1,3-dihydrofuro[3,4-c][1,7]naphthyridine-8-carbox-amide] | 2370 nM | 25300 nM
9 | C[C@H]1OCc2c1c(N)nc1cnc(C(=O)N(C)[C@@H]3COc4cc(C(F)(F)F)ccc43)cc21 [Example 211, (3R)-4-amino-N,3-dimethyl-N-((3S)-6-(trifluoromethyl)-2,3-dihydro-1-benzofuran-3-yl)-1,3-dihydrofuro[3,4-c][1,7]-naphthyridine-8-carboxamide] | 28 nM | 1460 nM
10 | CN(C(=O)c1cc2c3c(c(N)nc2cc1F)COC3)C1COc2ncc(C(F)(F)F)cc21 [Example 212, 4-amino-7-fluoro-N-methyl-N-((3R)-5-(trifluoromethyl)-2,3-dihydrofuro[2,3-b]pyridin-3-yl)-1,3-dihydrofuro[3,4-c]-quinoline-8-carboxamide and 4-amino-7-fluoro-N-methyl-N-((3S)-5-(trifluoromethyl)-2,3-dihydrofuro[2,3-b]pyridin-3-yl)-1,3-dihydrofuro[3,4-c]quin-oline-8-carboxamide] | 495 nM | 10700 nM
11 | CN(C(=O)c1cc2c3c(c(N)nc2cc1F)COC3)[C@@H]1COc2cc(-c3cnn(C)c3)ccc21 [Example 214, 4-amino-7-fluoro-N-methyl-N-((3S)-6-(1-methyl-1H-pyrazol-4-yl)-2,3-dihydro-1-benzofuran-3-yl)-1,3-dihydrofuro[3,4-c]-quinoline-8-carboxamide] | 29 nM | 2060 nM
12 | C[C@H]1OCc2c1c(N)nc1cc(F)c(C(=O)N(C)[C@@H]3COc4cc(-c5cnn(C)c5)ccc43)cc21 [Example 217, (3R)-4-amino-7-fluoro-N,3-dimethyl-N-((3S)-6-(1-methyl-1H-pyrazol-4-yl)-2,3-dihydro-1-benzofuran-3-yl)-1,3-dihydrofuro[3,4-c]quinoline-8-carboxamide] | 10 nM | 1020 nM
13 | CN(C(=O)c1cc2c3c(c(N)nc2cc1C#N)COC3)[C@@H]1COc2cc(C(F)(F)F)ccc21 [Example 218, 4-amino-7-cyano-N-methyl-N-((3S)-6-(trifluoromethyl)-2,3-dihydro-1-benzofuran-3-yl)-1,3-dihydrofuro[3,4-c]quin-oline-8-carboxamide] | 13 nM | 838 nM
14 | CN(C(=O)c1ccc2nc(N)c3c(c2c1)CSC3)[C@@H]1COc2cc(C(F)(F)F)ccc21 [Example 219, 4-amino-N-methyl-N-((3S)-6-(trifluoromethyl)-2,3-dihydro-1-benzofuran-3-yl)-1,3-dihydrothieno[3,4-c]quinoline-8-carboxamide] | 105 nM | 2770 nM
15 | CN(C(=O)c1ccc2nc(N)c3ccncc3c2c1)[C@@H]1COc2cc(C(F)(F)F)ccc21 [Example 220, 5-amino-N-methyl-N-((3S)-6-(trifluoromethyl)-2,3-dihydro-1-benzofuran-3-yl)-benzo[c][2,6]naphthyridine-9-carboxamide] | 18 nM | 432 nM
16 | CN(C(=O)c1ccc2nc(N)c3ncncc3c2c1)[C@@H]1COc2cc(C(F)(F)F)ccc21 [Example 221, 5-amino-N-methyl-N-((3S)-6-(trifluoromethyl)-2,3-dihydro-1-benzofuran-3-yl)pyrimido-[4,5-c]quinoline-9-carboxamide] | 590 nM | 4290 nM
17 | Cc1nccc2c(N)nc3ccc(C(=O)N(C)[C@@H]4COc5cc(C(F)(F)F)ccc54)cc3c12 [Example 222, 5-amino-N,1-dimethyl-N-((3S)-6-(trifluoromethyl)-2,3-dihydro-1-benzofuran-3-yl)benzo[c][2,6]-naphthyridine-9-carboxamide] | 280 nM | 3910 nM
18 | CN(C(=O)c1cc2c(cn1)nc(N)c1ccncc12)[C@@H]1COc2cc(C(F)(F)F)ccc21 [Example 223, 5-amino-N-methyl-N-((3S)-6-(trifluoromethyl)-2,3-dihydro-1-benzofuran-3-yl)pyrido[4,3-c][1,7]naphthyridine-9-carboxamide] | 23 nM | 437 nM
19 | CN(C(=O)c1cc2c(cn1)nc(N)c1ncncc12)[C@@H]1COc2cc(C(F)(F)F)ccc21 [Example 224, 5-amino-N-methyl-N-((3S)-6-(trifluoromethyl)-2,3-dihydro-1-benzofuran-3-yl)pyrimido-[4,5-c][1,7]naphthyridine-9-carboxamide] | 424 nM | 3600 nM
20 | Cc1noc2c1c(N)nc1cc(F)c(C(=O)N(C)[C@@H]3COc4cc(C(F)(F)F)ccc43)cc12 [Example 225, 4-amino-7-fluoro-N,3-dimeth-yl-N-((3S)-6-(trifluoromethyl)-2,3-dihydro-1-benzofuran-3-yl)[1,2]oxazolo[4,5-c]quin-oline-8-carboxamide] | 403 nM | 4940 nM
21 | CN(C(=O)c1ccc2nc(N)c3cnn(C)c3c2c1)[C@@H]1COc2cc(C(F)(F)F)ncc21 [Example 227, 4-amino-N,1-dimethyl-N-((3S)-6-(trifluoromethyl)-2,3-dihydrofuro[3,2-c]pyridin-3-yl)-1H-pyrazolo[4,3-c]-quinoline-8-carboxamide] | 19 nM | 1480 nM
22 | CCN(C(=O)c1ccc2nc(N)c3cnn(C)c3c2c1)[C@H]1COc2cc(C(F)(F)F)ccc21 [Example 229, 4-amino-N-ethyl-1-methyl-N-((3R)-6-(trifluoromethyl)-2,3-dihydro-1-benzofuran-3-yl)-1H-pyrazolo[4,3-c]quinoline-8-carboxamide] | 265 nM | 7740 nM
23 | CN(C(=O)c1ccc2nc(N)c3cnn(C)c3c2c1)[C@@H]1COc2cc(OC(F)(F)F)ccc21 [Example 230, 4-amino-N,1-dimethyl-N-((3S)-6-(trifluoromethoxy)-2,3-dihydro-1-benzofuran-3-yl)-1H-pyrazolo[4,3-c]quinoline-8-carboxamide] | 7 nM | 530 nM
24 | CN(C(=O)c1ccc2nc(N)c3cnn(C)c3c2c1)[C@@H]1COc2cc(C(F)(F)F)cc(Cl)c21 [Example 231, 4-amino-N-((3S)-4-chloro-6-(trifluoromethyl)-2,3-dihydro-1-benzofuran-3-yl)-N,1-dimethyl-1H-pyrazolo[4,3-c]-quinoline-8-carboxamide] | 215 nM | 2060 nM
25 | CN(C(=O)c1ccc2nc(N)c3cnn(C)c3c2c1)[C@H]1COc2cc(C(F)(F)F)cc(Cl)c21 [Example 232, 4-amino-N-((3R)-4-chloro-6-(trifluoromethyl)-2,3-dihydro-1-benzofuran-3-yl)-N,1-dimethyl-1H-pyrazolo[4,3-c]-quinoline-8-carboxamide] | 222 nM | 2490 nM
26 | CN(C(=O)c1ccc2nc(N)c3cnn(C)c3c2c1)[C@@H]1COc2cc(Br)ccc21 [Example 234, 4-amino-N-((3S)-6-bromo-2,3-dihydro-1-benzofuran-3-yl)-N,1-dimethyl-1H-pyrazolo[4,3-c]quinoline-8-carboxamide] | 8 nM | 613 nM

From US20240124442A1, “TRICYCLIC-AMIDO-BICYCLIC PRMT5 INHIBITORS” (AMGEN INC., priority 2021, published 2024)
